# Measurements as given in ChEMBL document CHEMBL5252526, “Small Molecule Kinase Inhibitors for the Treatment of Brain Cancer” (J Med Chem, 2016).
# What was measured:
# [1] = Ratio of drug concentration in brain to plasma in mouse assessed as unbound fraction; type: ADME, cell-free; conditions: brain and plasma, read-out: K(p,uu,brain)
# [2] = Ratio of AUC (0 to 24 hrs) in brain to plasma in mouse; type: ADME, cell-free; conditions: brain and plasma, read-out: Ratio AUC
# [3] = Ratio of drug concentration in brain to plasma in rat; type: ADME, cell-free; conditions: brain and plasma, read-out: BPR
# [4] = Ratio of drug concentration in brain to plasma in mouse; type: ADME, cell-free; conditions: brain and plasma, read-out: BPR
# [5] = Ratio of drug concentration in CSF to plasma in mouse assessed as unbound fraction; type: ADME, tissue-based; conditions: CSF and plasma
# [6] = Ratio of AUC in brain to plasma in rat at 25 mg/kg, po; type: ADME, organism-based; conditions: brain and plasma, read-out: Ratio AUC
# [7] = Ratio of AUC in brain to plasma in rat at 75 mg/kg, po; type: ADME, organism-based; conditions: brain and plasma, read-out: Ratio AUC
# [8] = Ratio of drug concentration in brain to plasma in mouse at 75 mg/kg, po; type: ADME, organism-based; conditions: brain and plasma, read-out: BPR
# [9] = Ratio of drug concentration in brain to plasma in rat at 3.5 mg/kg, iv; type: ADME, organism-based; conditions: brain and plasma, read-out: BPR
structure (smiles),measurement,setting,value
CCN1CCN(Cc2ccc(Nc3ncc(F)c(-c4cc(F)c5nc(C)n(C(C)C)c5c4)n3)nc2)CC1 [ABEMACICLIB],Kp uu,[1],0.2
COc1cc(N2CCC(N3CCN(C)CC3)CC2)ccc1Nc1ncnc(Nc2ccccc2S(=O)(=O)C(C)C)n1 [ASP-3026],Kp,[2],0.72
COc1cc(Nc2c(C#N)cnc3cc(OCCCN4CCN(C)CC4)c(OC)cc23)c(Cl)cc1Cl [BOSUTINIB],Kp,[3],0.4
COc1cc2c(Oc3ccc(NC(=O)C4(C(=O)Nc5ccc(F)cc5)CC4)cc3F)ccnc2cc1OCCCN1CCOCC1 [FORETINIB],Kp,[4],0.2
COc1cc2ncnc(Nc3ccc(F)c(Cl)c3)c2cc1OCCCN1CCOCC1 [GEFITINIB],Kp uu,[1],0.02
same,Kp uu,[5],0.09
Cc1ccc(C(=O)Nc2ccc(CN3CCN(C)CC3)c(C(F)(F)F)c2)cc1C#Cc1cnc2cccnn12 [PONATINIB],Kp,[4],1.6
CC[C@H](CO)Nc1nc(NCc2ccccc2)c2ncn(C(C)C)c2n1 [SELICICLIB],Kp,[6],0.3
CC(C)(O)CC(=O)NCCn1ccc2ncnc(Nc3ccc(Oc4cccc(C(F)(F)F)c4)c(Cl)c3)c21 [TAK-285],Kp,[7],0.24
Cc1cc(Nc2ncnc3ccc(NC4=NC(C)(C)CO4)cc23)ccc1Oc1ccn2ncnc2c1 [TUCATINIB],Kp,[8],0.5
CN[C@@H]1C[C@H]2O[C@@](C)([C@@H]1OC)n1c3ccccc3c3c4c(c5c6ccccc6n2c5c31)C(=O)N[C@H]4O [UCN-01],Kp,[9],0.5
